ChEMBL document CHEMBL1201862, “PubChem BioAssay data set” (2004)
The source made the active and inactive calls.

How the values were obtained:
[1] = Vero cell cytotoxicity, cytotoxicity control for M. tuberculosis inhibitor project, purified and synthesized samples, set 3 (AID 504684); format: functional
[2] = THP-1 cell cytotoxicity, cytotoxicity control, set 4 (AID 504911); format: functional; conditions: Mycobacterium tuberculosis
[3] = THP-1 cell cytotoxicity, dose response, cytotoxicity control, set 3 (AID 504852); format: functional; conditions: Mycobacterium tuberculosis
[4] = system: Streptococcus sp. 'group A'; test: growth inhibition of control SK(-) GAS strain, dose response, counter-screen for streptokinase expression inhibitor project, luminescence, kanamycin, BacTiterGlo, confirmation (AID 1900); format: functional, organism-based
Streptokinase A = target: T1, Streptokinase A (Streptococcus pyogenes serotype M1, UniProt P10520); test: S. pyogenes streptokinase expression inhibitors, potency, dose response, plasminogen activation absorbance, OD405 (AID 1914); format: functional, Streptococcus pyogenes M1 GAS;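 also: secreted streptokinase activity via plasminogen activation per viability signal from cell pellet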
T1 sequence (P10520 whole entry): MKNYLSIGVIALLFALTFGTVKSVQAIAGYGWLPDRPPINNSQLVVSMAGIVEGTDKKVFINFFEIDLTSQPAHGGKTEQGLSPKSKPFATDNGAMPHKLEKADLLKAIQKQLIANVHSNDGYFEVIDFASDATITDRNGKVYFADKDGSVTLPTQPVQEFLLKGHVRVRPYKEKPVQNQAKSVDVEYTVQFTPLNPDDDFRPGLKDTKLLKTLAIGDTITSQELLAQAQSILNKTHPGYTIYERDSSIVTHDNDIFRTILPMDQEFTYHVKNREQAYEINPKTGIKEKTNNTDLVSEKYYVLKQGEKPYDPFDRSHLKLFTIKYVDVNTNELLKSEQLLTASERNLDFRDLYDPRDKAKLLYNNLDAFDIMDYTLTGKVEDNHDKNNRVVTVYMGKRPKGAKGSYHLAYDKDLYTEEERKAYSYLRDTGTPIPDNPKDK

Streptococcus = test: Group A Streptococcus viability loss, dose response, counter-screen for streptokinase expression inhibitor project, luminescence, BacTiterGlo (AID 1915); format: functional, organism-based;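 also: potency for reduction of bacterial viability or growth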
[5] = Luminescence Cell-Based Dose Retest to Confirm Inhibitors of Cancer Stem Cells. [Related pubchem assays (depositor defined):AID2717, AID2721]; format: functional; conditions: Homo sapiens
Cysteine protease ATG4B = Cysteine protease ATG4B (Homo sapiens, UniProt Q9Y4P1); format: functional;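 also: Fluorescence-based dose-response confirmation assay measuring inhibition of ATG4B activity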
Phospholipase A2 = Phospholipase A2 (Homo sapiens, UniProt P04054); format: functional;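 also: confirmatory dose-response counterscreen on phospholipase A2, testing hits that came from an ultra-high-throughput screen for ATG4B inhibitors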
[6] = target: T2, Corticotropin-releasing factor receptor 2/Corticotropin-releasing factor-binding protein (Homo sapiens, UniProt P24387+Q13324); test: activators of CRF receptor 2 with binding protein – uHTS hits, confirmation (AID 602473); format: functional; conditions: read-out: EC50_Mean
T2 sequence (Q13324 whole entry): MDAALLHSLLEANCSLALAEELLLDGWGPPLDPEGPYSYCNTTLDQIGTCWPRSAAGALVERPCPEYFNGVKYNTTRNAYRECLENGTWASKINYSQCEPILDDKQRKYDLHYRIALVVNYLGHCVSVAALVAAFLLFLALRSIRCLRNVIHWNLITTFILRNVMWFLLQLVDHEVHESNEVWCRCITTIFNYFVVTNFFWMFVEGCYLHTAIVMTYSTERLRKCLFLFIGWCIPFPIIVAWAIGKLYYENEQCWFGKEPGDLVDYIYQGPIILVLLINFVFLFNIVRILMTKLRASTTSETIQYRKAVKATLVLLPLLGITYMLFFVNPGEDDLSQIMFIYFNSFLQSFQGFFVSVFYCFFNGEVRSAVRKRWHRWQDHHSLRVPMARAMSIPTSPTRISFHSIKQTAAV
T2 sequence (P24387 whole entry): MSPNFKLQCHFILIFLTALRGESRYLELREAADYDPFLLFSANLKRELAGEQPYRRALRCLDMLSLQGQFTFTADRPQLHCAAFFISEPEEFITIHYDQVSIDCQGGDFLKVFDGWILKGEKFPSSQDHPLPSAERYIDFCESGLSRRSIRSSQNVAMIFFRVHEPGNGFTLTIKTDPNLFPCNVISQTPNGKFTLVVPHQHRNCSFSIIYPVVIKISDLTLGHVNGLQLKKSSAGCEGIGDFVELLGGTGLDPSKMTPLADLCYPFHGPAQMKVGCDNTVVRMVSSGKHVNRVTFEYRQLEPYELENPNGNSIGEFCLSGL

[7] = target: DNA dC->dU-editing enzyme APOBEC-3G (Homo sapiens, UniProt Q9HC16); test: APOBEC3G deaminase inhibitors, SAR follow-up, biochemical, fluorescence, single-stranded DNA substrate (AID 602136); format: functional; conditions: read-out: IC50_Mean
[8] = target: DNA dC->dU-editing enzyme APOBEC-3A (Homo sapiens, UniProt P31941); test: SAR analysis of small molecule inhibitors of APOBEC3A DNA Deaminase via a fluorescence-based single-stranded DNA deaminase assay.; format: functional; conditions: read-out: IC50_Mean
Candida albicans [9] = test: growth inhibition of resistant C. albicans, dose response, CaCi-8 strain, fluconazole, dry powder, set 4 (AID 488950); format: functional, organism-based
Candida albicans [10] = test: fluconazole resistance reversal in C. albicans, dose response, CaCi-2 strain, Alamar Blue, dry powder, set 4 (AID 488943); format: functional, organism-based
Candida albicans [11] = test: growth inhibition of resistant C. albicans, dose response, CaCi-8, fluconazole, Alamar Blue, dry powder (AID 488807); format: functional, organism-based
Candida albicans [12] = test: single-agent growth inhibition of C. albicans, dose response, counter-screen for antifungal drug resistance project, C. albicans CaCi-2, dry powder (AID 488802); format: functional, organism-based
NIH3T3 = test: cytotoxicity in NIH-3T3 fibroblasts, dose response, cytotoxicity control for antifungal drug resistance project, cell-based, Alamar Blue, fluconazole, dry powder (AID 488809); format: functional; conditions: Mus musculus
[13] = target: T3, Sentrin-specific protease 8 (Homo sapiens, UniProt Q96LD8); test: SENP8 protease inhibitors, SAR follow-up, biochemical, luminescence (AID 504501); format: functional
T3 sequence (Q96LD8 whole entry): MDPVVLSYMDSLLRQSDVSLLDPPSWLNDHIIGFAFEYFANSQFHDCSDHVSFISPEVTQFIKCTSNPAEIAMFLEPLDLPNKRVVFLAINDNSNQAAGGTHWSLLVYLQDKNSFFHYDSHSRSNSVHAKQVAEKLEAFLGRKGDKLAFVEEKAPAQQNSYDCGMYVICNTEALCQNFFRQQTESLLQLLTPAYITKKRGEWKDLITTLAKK

Caspase-3 [14] = target: T4, Caspase-3 (Homo sapiens, UniProt P42574); test: caspase-3 inhibitors as off-family protease, SAR follow-up, selectivity assay for SENP protease inhibitor project, biochemical, luminescence, set 2 (AID 588599); format: functional
T4 sequence (P42574 whole entry): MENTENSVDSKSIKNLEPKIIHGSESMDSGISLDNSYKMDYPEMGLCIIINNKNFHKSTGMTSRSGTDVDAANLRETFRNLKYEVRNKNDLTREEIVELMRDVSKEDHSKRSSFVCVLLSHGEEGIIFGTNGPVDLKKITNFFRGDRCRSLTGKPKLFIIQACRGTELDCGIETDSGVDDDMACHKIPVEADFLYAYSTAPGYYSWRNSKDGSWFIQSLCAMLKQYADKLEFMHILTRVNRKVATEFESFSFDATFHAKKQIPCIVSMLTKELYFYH

[15] = target: T3, Sentrin-specific protease 8; test: SENP8 protease inhibitors, SAR follow-up, biochemical, luminescence, set 2 (AID 588601); format: functional
Caspase-3 [16] = target: T4, Caspase-3; test: SAR Analysis of small molecule inhibitors of Sentrin-specific proteases (SENPs) using a Caspase-3 Selectivity assay. [Related pubchem assays (depositor defined):AID2540, AID2599, AID434973, AID489001]; format: functional
[17] = target: T5, Sentrin-specific protease 7 (Homo sapiens, UniProt Q9BQF6); test: SENP7 protease inhibitors, SAR follow-up, biochemical, luminescence, set 2 (AID 588600); format: functional
T5 sequence (Q9BQF6 whole entry): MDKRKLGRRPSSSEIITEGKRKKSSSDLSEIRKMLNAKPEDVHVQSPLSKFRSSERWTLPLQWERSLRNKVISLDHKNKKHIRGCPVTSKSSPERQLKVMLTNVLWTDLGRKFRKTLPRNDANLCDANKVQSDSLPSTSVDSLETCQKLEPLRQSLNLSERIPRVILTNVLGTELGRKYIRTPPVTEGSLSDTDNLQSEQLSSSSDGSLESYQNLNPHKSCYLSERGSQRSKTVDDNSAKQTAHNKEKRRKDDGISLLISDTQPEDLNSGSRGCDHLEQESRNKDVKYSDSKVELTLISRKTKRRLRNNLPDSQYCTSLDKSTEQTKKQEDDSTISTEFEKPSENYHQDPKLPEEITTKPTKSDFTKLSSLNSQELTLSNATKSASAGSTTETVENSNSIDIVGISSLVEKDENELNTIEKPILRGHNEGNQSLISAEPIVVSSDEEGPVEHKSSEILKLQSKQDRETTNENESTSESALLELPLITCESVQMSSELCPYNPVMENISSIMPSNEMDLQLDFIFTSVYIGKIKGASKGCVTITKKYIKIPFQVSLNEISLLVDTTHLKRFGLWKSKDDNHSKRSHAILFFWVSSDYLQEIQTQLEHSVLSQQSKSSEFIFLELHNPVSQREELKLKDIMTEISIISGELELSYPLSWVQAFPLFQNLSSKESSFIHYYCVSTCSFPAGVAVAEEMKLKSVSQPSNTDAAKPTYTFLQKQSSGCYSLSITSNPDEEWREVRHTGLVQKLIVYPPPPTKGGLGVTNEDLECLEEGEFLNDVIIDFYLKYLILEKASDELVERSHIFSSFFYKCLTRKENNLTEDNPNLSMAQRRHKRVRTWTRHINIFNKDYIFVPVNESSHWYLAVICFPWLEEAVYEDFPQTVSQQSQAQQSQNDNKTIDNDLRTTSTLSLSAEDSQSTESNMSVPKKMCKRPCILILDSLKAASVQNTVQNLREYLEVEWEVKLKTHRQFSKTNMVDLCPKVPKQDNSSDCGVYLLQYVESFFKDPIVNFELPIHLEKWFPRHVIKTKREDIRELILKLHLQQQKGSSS

[18] = target: T6, Sentrin-specific protease 6 (Homo sapiens, UniProt Q9GZR1); test: SAR Analysis of small molecule inhibitors of Sentrin-specific protease 6 (SENP6) using a Luminescent assay. [Related pubchem assays (depositor defined):AID2582, AID2599]; format: functional
T6 sequence (Q9GZR1 whole entry): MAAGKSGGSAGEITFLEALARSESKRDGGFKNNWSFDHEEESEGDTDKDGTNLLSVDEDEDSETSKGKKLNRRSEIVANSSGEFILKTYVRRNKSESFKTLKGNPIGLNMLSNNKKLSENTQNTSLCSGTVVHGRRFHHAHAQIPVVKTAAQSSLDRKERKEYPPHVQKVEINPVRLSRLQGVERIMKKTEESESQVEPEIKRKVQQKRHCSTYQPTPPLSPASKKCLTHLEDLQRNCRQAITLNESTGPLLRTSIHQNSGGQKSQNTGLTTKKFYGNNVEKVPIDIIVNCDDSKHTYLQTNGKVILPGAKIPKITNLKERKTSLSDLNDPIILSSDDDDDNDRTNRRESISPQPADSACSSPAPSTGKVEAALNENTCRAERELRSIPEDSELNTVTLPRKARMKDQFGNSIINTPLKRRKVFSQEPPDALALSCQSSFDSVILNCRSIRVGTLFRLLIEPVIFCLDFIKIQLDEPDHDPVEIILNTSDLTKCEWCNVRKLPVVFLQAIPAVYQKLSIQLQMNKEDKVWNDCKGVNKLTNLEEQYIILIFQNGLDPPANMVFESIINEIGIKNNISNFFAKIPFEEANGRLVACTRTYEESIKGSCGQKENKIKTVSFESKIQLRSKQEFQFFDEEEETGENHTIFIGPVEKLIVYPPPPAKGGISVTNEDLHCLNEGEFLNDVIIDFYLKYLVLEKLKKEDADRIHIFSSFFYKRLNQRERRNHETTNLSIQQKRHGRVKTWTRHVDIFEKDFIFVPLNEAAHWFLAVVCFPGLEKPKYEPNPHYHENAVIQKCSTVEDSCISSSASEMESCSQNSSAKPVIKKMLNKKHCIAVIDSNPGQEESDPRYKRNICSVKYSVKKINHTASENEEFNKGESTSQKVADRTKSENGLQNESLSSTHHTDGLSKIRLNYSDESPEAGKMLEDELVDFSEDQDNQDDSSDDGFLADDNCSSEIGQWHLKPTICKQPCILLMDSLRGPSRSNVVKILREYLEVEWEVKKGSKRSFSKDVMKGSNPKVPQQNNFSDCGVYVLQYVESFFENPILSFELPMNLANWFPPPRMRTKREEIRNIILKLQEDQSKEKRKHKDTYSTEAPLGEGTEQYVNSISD

[19] = target: T6, Sentrin-specific protease 6; test: SENP6 protease inhibitors, SAR follow-up, biochemical, luminescence, set 2 (AID 588598); format: functional
[20] = target: T5, Sentrin-specific protease 7; test: SENP7 protease inhibitors, SAR follow-up, biochemical, luminescence (AID 504497); format: functional

Chain of Cysteine protease ATG4B (Q9Y4P1 whole entry): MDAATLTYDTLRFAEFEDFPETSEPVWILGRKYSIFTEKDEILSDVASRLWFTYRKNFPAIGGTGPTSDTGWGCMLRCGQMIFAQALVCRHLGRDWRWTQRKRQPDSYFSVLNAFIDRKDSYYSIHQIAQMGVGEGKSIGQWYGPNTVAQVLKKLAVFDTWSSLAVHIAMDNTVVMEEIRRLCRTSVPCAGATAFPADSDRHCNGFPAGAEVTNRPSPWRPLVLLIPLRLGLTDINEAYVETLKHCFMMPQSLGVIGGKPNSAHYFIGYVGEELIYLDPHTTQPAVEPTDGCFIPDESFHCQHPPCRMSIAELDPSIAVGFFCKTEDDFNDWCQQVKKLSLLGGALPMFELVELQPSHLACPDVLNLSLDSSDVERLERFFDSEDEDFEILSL
Chain of DNA dC->dU-editing enzyme APOBEC-3G (Q9HC16 whole entry): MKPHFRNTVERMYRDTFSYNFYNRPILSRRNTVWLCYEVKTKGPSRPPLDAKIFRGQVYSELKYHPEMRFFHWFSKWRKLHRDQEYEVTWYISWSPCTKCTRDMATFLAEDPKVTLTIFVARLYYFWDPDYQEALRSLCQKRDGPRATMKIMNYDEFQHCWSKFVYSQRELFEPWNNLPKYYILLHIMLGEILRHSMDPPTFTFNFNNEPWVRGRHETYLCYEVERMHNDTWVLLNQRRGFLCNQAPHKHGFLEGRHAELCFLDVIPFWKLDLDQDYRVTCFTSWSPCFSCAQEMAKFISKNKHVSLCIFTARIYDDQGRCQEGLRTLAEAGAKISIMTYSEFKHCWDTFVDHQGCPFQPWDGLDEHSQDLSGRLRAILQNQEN
Chain of Phospholipase A2 (P04054 whole entry): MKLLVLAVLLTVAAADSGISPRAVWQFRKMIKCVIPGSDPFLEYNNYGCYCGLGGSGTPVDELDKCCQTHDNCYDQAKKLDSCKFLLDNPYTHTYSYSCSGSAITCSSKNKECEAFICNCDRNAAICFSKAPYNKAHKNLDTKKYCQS
Chain of DNA dC->dU-editing enzyme APOBEC-3A (P31941 whole entry): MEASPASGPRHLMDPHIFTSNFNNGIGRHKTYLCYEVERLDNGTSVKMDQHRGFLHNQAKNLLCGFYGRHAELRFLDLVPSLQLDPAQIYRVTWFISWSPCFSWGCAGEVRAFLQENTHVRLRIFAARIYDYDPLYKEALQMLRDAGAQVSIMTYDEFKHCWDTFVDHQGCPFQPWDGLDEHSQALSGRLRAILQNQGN

SMILES: Cc1[nH]c(SCC(=O)N(C)c2ccccc2)nc(=O)c1C
- CC50 [1]: > 100 µM (active)
- CC50 [2]: > 100 µM (active)
- CC50 [3]: > 100 µM (active)

SMILES: Cc1cc(C)cc(-n2c(C)cc(/C=C3\C(=N)N4N=C(CC(C)C)SC4=NC3=O)c2C)c1
- EC50 [4]: 4.57 µM (active)
- EC50 (Streptokinase A): > 50 µM (not active)
- EC50 (Streptococcus): 9.46 µM (active)
- AC50 [5]: 2.82 µM (active)
- IC50 (Cysteine protease ATG4B): 3.65 µM (active)
- IC50 (Phospholipase A2): 2.3 µM (active)
- EC50 [6]: 6.77 µM (active)

SMILES: O=C(CSc1nnc2scc(-c3ccc(Cl)cc3)n12)N1CCOCC1
- IC50 [7]: 28 µM (inactive)
- IC50 [8]: > 99 µM (inactive)

SMILES: O=C(c1ccc(Cl)c(Cl)c1)N1CCN(c2ccnc3cc(Cl)ccc23)CC1
- AC50 (Candida albicans [9]): 0.515 µM (active)
- AC50 (Candida albicans [10]): 0.726 µM (active)
- AC50 (Candida albicans [11]): 1.14 µM (active)
- AC50 (Candida albicans [12]): 45.2 µM (active)
- AC50 (NIH3T3): 43.6 µM (active)

SMILES: Oc1ccccc1-c1nc(/C=C/c2ccccc2)no1
- IC50 [13]: 71 µM (active)
- IC50 (Caspase-3 [14]): 3.6 µM (active)
- IC50 [15]: 2.54 µM (active)
- IC50 (Caspase-3 [16]): 6.9 µM (active)
- IC50 [17]: 2.71 µM (active)
- IC50 [18]: 8.4 µM (active)
- IC50 [19]: 2.12 µM (active)
- IC50 [20]: 2.8 µM (active)
